What was measured:
[1] = system: SNO-oesophageal cancer cells; experiment: Flow cytometric analysis (Annexin-V FITC / PI) of apoptosis and/or necrosis in SNO-oesophageal cancer cells; format: cell-based; conditions: 14 μM, 24 hours
Description: To determine if either apoptosis or necrosis occurred, the cells were double labelled with Annexin-V FITC and Propidium Iodide (PI) by means of an Annexin-V FITC assay kit (Serotec, UK). This was done according to manufacturer's instructions with a few adjustments. Briefly, the cells (±3×10^5 cells/ml) were washed twice with cold phosphate buffered saline (PBS), followed by the addition of 100 μl 1× binding buffer. Two and a half microliters of Annexin-V along with 5 μl PI were added in the dark and was incubated for 15 minutes at room temperature. After incubation, 400 μl 1× binding buffer was added and cells were analysed using the FACSAria flow cytometer (BD Biosciences, San Jose, Calif.) with FACSDiva software (BD Biosciences, San Jose, Calif.) 492 nm (excitation) and 520 nm for Annexin and 488 nm and 575 nm(emission) for PI.
The cell membrane contains a negatively charged phosphatidylserine (PS) on the inner leaflet and is exposed when apoptosis or necrosis takes place. Annexin-V interacts with PS in both apoptotic and necrotic cells, making these cellular deaths undistinguishable. This is overcome by using PI as an alternative label that interacts with the exposed DNA of necrotic cells only, leading to the fluorescent detection of both these labels. Pie charts (FIG. 9) were constructed for all the controls (including Ligand-1 to Ligand-5) and the different silver(I) thiocyanate phosphine complexes (1)-(5).
Pie charts representing the four different flow cytometric quadrants of Annexin-V and […] to determine the mode of cellular death induced in differentially treated SNO-oesophageal cells are represented in FIG. 9. An untreated control (A), apoptotic control (B) and necrotic control (C) were included. Cells were treated with 10 μM of the different ligands including the silver(I) thiocyanate phosphine complexes (1)-(5). An average percentage was calculated for all segments where the SEM is n=3 for all treatments except for 15% H2O2 (n=2). The four segments represent the following: White segment—negative for FITC and PI, Light grey segment—positive for FITC but negative for PI, Dark grey segment—positive for PI but negative for FITC and Black segment—positive for both FITC and PI. Cells undergoing early apoptosis are represented by the light grey segment, while those of late apoptosis and primary necrosis are represented by the black segment. Necrotic cells are represented by the dark grey segment and intact viable cells are shown by the white segment.
Approximately 3×10^5 cells were washed with ice cold phosphate buffered saline solution (PBS). The cells were double labeled using an Annexin-V FITC assay kit adjusting the protocol. A 1× binding buffer (100 μl) was used to fix the cells. Annexin-V (2.5 μl) and Propidium Iodide (PI—5 μl) labels were added respectively followed by a 15 minute incubation, at room temperature, in the dark. After the incubation period, 400 μl of the 1× binding buffer was added, where counting of the cellular events was made using an FACSAria flow cytometer (BD Biosciences, San Jose, Calif.) with FACSDiva software (BD Biosciences, San Jose, Calif.). This technique in particular identifies whether predicted apoptotic cell death (or necrosis) was induced by these complexes.
As observed in FIG. 14, dot blots represent the mode of cellular death induced in the SNO-oesophageal cancer cells after 24 hours of treatment. FIG. 14(a): 0.1% DMSO, FIG. 14(b): 100 μM CDDP, FIG. 14(c): 25% H2O2, FIG. 14(d-i): complexes (6)-(9). An average percentage was calculated for all quadrants where the SEM is n=2 for all treatments. The four quadrants represent the following: Quadrant Q3 is negative for FITC and PI, Quadrant Q4 is positive for FITC but negative for PI, Quadrant Q1 is positive for PI but negative for FITC and Quadrant Q2 is positive for both FITC and PI. Cells undergoing early apoptosis are more likely to be found in Quadrant Q4 while those of late apoptosis and primary necrosis will be found in Quadrant Q2. […]

[2] = system: SNO-oesophageal cancer cells; experiment: Morphological features of SNO-oesophageal cancer cells by inverse light microscopy; format: cell-based; conditions: 24 hours of treatment
Description: Morphological studies were done by means of an Axiovert 25 inverted microscope (Carl Zeiss, Göttingen, Germany) with Axio Vision 3.1 software (Carl Zeiss, Göttingen, Germany) using an magnification of 100×.
After 24 hours of treatment with complexes (1)-(5) including their ligands the cells were examined under said Axiovert 25 inverted light microscope. This was done to determine how the complexes of the present invention influence morphology which was compared to 100 μM Cisplatin (apoptotic control) and 15% H2O2 (necrotic control).
Light microscope images indicating the morphology of the differentially treated SNO-oesophageal cancer cells is shown in FIG. 8. An untreated control (a) including 100 μM Cisplatin (b), an apoptotic control and 15% H2O2 (c), and a necrotic control was included. Cells were treated with 10 μM silver(I) thiocyanate phosphine complexes (1)-(5) as well as their separate ligands (Ligand-1 to Ligand-5, respectively) (FIGS. 8d to 8m). Black arrows represent signs of apoptosis, while the white arrows represent signs of necrosis.
An Axiovert 25 inverted microscope was used to examine if these complexes affect the morphological features of the malignant cells in any other way. This was done at a magnification of 100× with the use of Axio Version 3.1 software (Carl Zeiss, Gottingen, Germany).
Morphological studies where done after 24 hours of treatment to determine how these compounds influence/change specific features of the malignant SNO-oesophageal cancer cells, compared to the untreated (UC) and 1% DMSO vehicle control. The treated cancer cells including their controls were examined under an Axiovert 25 inverted light microscope (Carl Zeiss, Göttingen, Germany) with Axio Vision 3.1 software (Carl Zeiss, Göttingen, Germany) using a 100× magnification. In FIG. 19, the morphology of the different controls including Ligand-10 and complexes (10)-(12) are represented. To predict the targeting mechanisms of these compounds, the treated cells were compared to 100 μM Cisplatin (apoptotic control) and 25% H2O2 (necrotic control).

[3] = system: SNO-oesophageal cancer cells; format: cell-based; conditions: for cancer cell death compared to the vehicle control: 14 μM, 24 hour treatment
[4] = system: MCF-7 breast cancer cells; experiment: AlamarBlue viability and proliferation assay of MCF-7 breast cancer cells; format: cell-based, human
Description: For the biological studies, MCF-7 breast cancer cells were obtained from an immortal cell line from human adenocarcinoma from (primary site) mammary gland and (metastatic site) pleural effusion (ATCC no HTB-22).
MCF-7 breast cancer cells were cultured in Dulbecco's modified Eagle's medium (DMEM), 13.53 g/L with sodium bicarbonate (NaHCO3), 3.7 g/L supplemented with 10% foetal bovine serum (FBS), 1% gentamycin and 5% Penicillin/Streptomycin/Fungizone in 75 cm^3 culture flasks. Cells were subcultured twice a week and incubated at 37° C. with 5% CO2 in a humidified atmosphere. Hanks balanced salt solution (HBSS), supplemented DMEM media and trypsin versene were warmed to 37° C. prior to subculturing. Cells were washed twice with 10 ml Hanks balanced salt solution for 1 minute and were then incubated for 4.5 to 5 minutes at 37° C. with 6 ml trypsin versene to remove the cells from the culture flask. To inactivate the trypsin versene, 10 ml supplemented DMEM was added and the cells were pelleted by centrifugation at 1028 g for 4 minutes with an Allegra™ 25R Centrifuge. The pellet was resuspended in 1 ml supplemented DMEM and 500 μl of the cell suspension was then added to 25 ml of supplemented DMEM media in 75 cm^3 culture flasks.
MCF-7 breast cancer cells, in terms of a first study, and SNO-oesophageal cancer cells, in terms of a second study, were treated with 10 μM silverthiocyanide complexes (1)-(5), as well as their ligands (Ligand-1 to Ligand-5) over a 24 hour incubation period. […] An untreated negative control (UT) was exposed to similar conditions as the treated cells and monitored during the experimental study.
The AlamarBlue® viability and proliferation assay of complexes (1)-(5) for the MCF-7 breast cancer cells is depicted in FIGS. 1A to 1F. The percentage viability of control samples determined by the AlamarBlue® viability and proliferation assay is depicted in FIG. 1A. […] A significant difference (P<0.001) between the control and the treated samples was calculated using Student's T-test and is indicated by an asterisk.
(§1) This Figure depicts the percentage viability of MCF-7 cells treated with various concentrations of complex (1) as determined by the AlamarBlue® viability and proliferation assay. […] The asterisk indicates a significant difference between a sample and the control (P<0.001) as calculated with Student's T-test.
as §1, with “FIG. 1C to FIG. 1F represent the dose dependant studies of complexes (2) to (5), respectively. In each of these Figures,” for “This Figure depicts”, “complexes (2) to (5) was” for “complex (1) as”, “T-test. […]” for “T-test.”

| Molecule | signs of apoptosis / cell death (morphology) ([2]; 14 μM) | necrotic cell death (morphology) ([2]; 14 μM) | cancer cell death compared to the vehicle control [3] | further results |
| --- | --- | --- | --- | --- |
| c1ccc(P(c2ccccc2)c2ccccc2)cc1 [Ligand-10, PPh3, reference compound] | minimal cell death similar to apoptosis | – | – | influence on cellular viability and PS externalisation, flow cytometry [1]: did not influence; viability ([3]; 14 µM): 99.03% |
| Cc1ccc([P+](c2ccc(C)cc2)(c2ccc(C)cc2)[Ag]2([P+](c3ccc(C)cc3)(c3ccc(C)cc3)c3ccc(C)cc3)[N+]#C[S][Ag]([P+](c3ccc(C)cc3)(c3ccc(C)cc3)c3ccc(C)cc3)([P+](c3ccc(C)cc3)(c3ccc(C)cc3)c3ccc(C)cc3)[N+]#C[S]2)cc1 [complex (2), [AgSCN{P(4-MeC6H4)3}2]2] | – | – | – | necrotic cell death (morphology) ([2]; 10 μM): Necrotic cell death was also observed; decrease in viability and proliferation ([4]; 10 μM, 24 hours after treatment, compared to the untreated control): ~70% |
| Clc1ccc([P+](c2ccc(Cl)cc2)(c2ccc(Cl)cc2)[Ag]2([P+](c3ccc(Cl)cc3)(c3ccc(Cl)cc3)c3ccc(Cl)cc3)[N+]#C[S][Ag]([P+](c3ccc(Cl)cc3)(c3ccc(Cl)cc3)c3ccc(Cl)cc3)([P+](c3ccc(Cl)cc3)(c3ccc(Cl)cc3)c3ccc(Cl)cc3)[N+]#C[S]2)cc1 [complex (4), [AgSCN{P(4-ClC6H4)3}2]2] | – | – | – | cytotoxic activity (ranking) ([4]; MCF-7 cells): strongest |
| [Cl][Ag]([PH](c1ccccc1)(c1ccccc1)c1ccccc1)([PH](c1ccccc1)(c1ccccc1)c1ccccc1)[PH](c1ccccc1)(c1ccccc1)c1ccccc1 [complex (10), AgCl(PPh3)3] | multiple signs of apoptosis | Minimal necrotic cell death | significantly induced cancer cell death | – |
| [Br][Ag]([PH](c1ccccc1)(c1ccccc1)c1ccccc1)([PH](c1ccccc1)(c1ccccc1)c1ccccc1)[PH](c1ccccc1)(c1ccccc1)c1ccccc1 [complex (11), AgBr(PPh3)3] | multiple signs of apoptosis | Minimal necrotic cell death | significantly induced cancer cell death | apoptotic cells (early and late stages), flow cytometry [1]: 47.23%; necrotic cells positive for PI, flow cytometry [1]: 14.73% |
| AgCN(PPh3)3 [complex (12)] | multiple signs of apoptosis | Minimal necrotic cell death | significantly induced cancer cell death | – |

Reference: US10583109B2, “Use of silver(I) complexes as anticancer agents” (University of Johannesburg, priority 2012, dated 2020)
